Measurements from ChEMBL document CHEMBL1201862, “PubChem BioAssay data set” (2004).
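Tested at 5 concentrations; 48 h exposure; 96-well plates; endpoints linearly interpolated, else capped at highest concentration. At the GI50, growth is halved.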 Active and inactive are the calls of the source. No stated cut-off is given here; in the data, active = GI50 up to about 1.1 µM and inactive = higher.

What was measured:
Test in all cases: inhibition of tumour cell growth, NCI panel, 48 h
A498 = system: A498
A549 = system: A549
ACHN = system: ACHN
CAKI-1 = system: CAKI-1
HCT-15 = system: HCT-15
HT-29 = system: HT-29
MDA-N = system: MDA-N
NCI-H226 = system: NCI-H226
NCI-H23 = system: NCI-H23
NCI/ADR-RES = system: NCI/ADR-RES
OVCAR-5 = system: OVCAR-5
OVCAR-8 = system: OVCAR-8
PC-3 = system: PC-3
RPMI-8226 = system: RPMI-8226
SK-MEL-2 = system: SK-MEL-2
SK-MEL-5 = system: SK-MEL-5
SK-OV-3 = system: SK-OV-3
SNB-19 = system: SNB-19
UACC-257 = system: UACC-257
UACC-62 = system: UACC-62

Measured: GI50

CN1CCc2[nH]nc(-c3n[nH]c4c3CN(C)CC4)c2C1
inactive: A498 > 100 µM | A549 > 100 µM | ACHN > 100 µM | CAKI-1 > 100 µM | HT-29 > 100 µM | MDA-N > 100 µM | NCI-H226 > 100 µM | NCI-H23 > 100 µM | NCI/ADR-RES > 100 µM | OVCAR-5 > 100 µM | OVCAR-8 > 100 µM | PC-3 > 100 µM | RPMI-8226 > 100 µM | SK-MEL-2 > 100 µM | SK-MEL-5 > 100 µM | SK-OV-3 > 100 µM | SNB-19 > 100 µM | UACC-257 > 100 µM | UACC-62 > 100 µM
> 100 µM: HCT-15

NC(=S)N/N=C(/C(=O)Nc1nc2ccc([N+](=O)[O-])cc2s1)C1C(=O)NC(=S)NC1=O
42.7 µM: HCT-15
inactive: A498 72.3 µM | A549 > 100 µM | ACHN 59.4 µM | CAKI-1 45.8 µM | HT-29 > 100 µM | MDA-N > 100 µM | NCI-H226 33.2 µM | NCI-H23 > 100 µM | NCI/ADR-RES > 100 µM | OVCAR-5 55.3 µM | OVCAR-8 > 100 µM | PC-3 63.1 µM | RPMI-8226 > 100 µM | SK-MEL-2 > 100 µM | SK-OV-3 > 100 µM | SNB-19 76.6 µM | UACC-257 > 100 µM | UACC-62 > 100 µM

COC(C/C(=C/CO[Si](C(C)C)(C(C)C)C(C)C)C(=O)Nc1ccccc1I)OC
19.1 µM: HCT-15
inactive: A498 > 100 µM | A549 22.9 µM | ACHN 37.8 µM | CAKI-1 22.2 µM | HT-29 29.6 µM | MDA-N 23.2 µM | NCI-H226 28.5 µM | NCI-H23 32.9 µM | NCI/ADR-RES 22.9 µM | OVCAR-5 24 µM | OVCAR-8 33 µM | PC-3 18.9 µM | RPMI-8226 6.15 µM | SK-MEL-2 15.2 µM | SK-MEL-5 26.5 µM | SK-OV-3 28.2 µM | SNB-19 18.4 µM | UACC-257 32.6 µM | UACC-62 53.5 µM

COC(=O)C1(Cc2ccc(C)cc2)Cc2c(C)cccc2C1=O (stereo not drawn)
inactive: A498 13.7 µM | A549 18.2 µM | ACHN 26.5 µM | CAKI-1 25.7 µM | HT-29 8.83 µM | MDA-N 3.27 µM | NCI-H226 15.3 µM | NCI-H23 35.3 µM | NCI/ADR-RES 14.9 µM | OVCAR-5 24.6 µM | OVCAR-8 27.7 µM | PC-3 12.4 µM | RPMI-8226 15.1 µM | SK-MEL-2 12.9 µM | SK-MEL-5 12.9 µM | SK-OV-3 14.5 µM | SNB-19 17.7 µM | UACC-257 22.1 µM | UACC-62 20.8 µM
14.2 µM: HCT-15

CC(C)(C)OC(=O)NCCCCC(N)NC(=O)c1ccccc1 (stereo not drawn)
> 100 µM: HCT-15
inactive: A498 > 100 µM | A549 > 100 µM | ACHN > 100 µM | CAKI-1 > 100 µM | HT-29 > 100 µM | MDA-N > 100 µM | NCI-H226 > 100 µM | NCI-H23 > 100 µM | NCI/ADR-RES > 100 µM | OVCAR-5 > 100 µM | OVCAR-8 > 100 µM | PC-3 > 100 µM | RPMI-8226 > 100 µM | SK-MEL-2 > 100 µM | SK-MEL-5 > 100 µM | SK-OV-3 > 100 µM | SNB-19 > 100 µM | UACC-257 > 100 µM | UACC-62 > 100 µM

O=C(C/C(=N/O)c1cc(-c2ccccc2)no1)c1ccccc1
inactive: A498 > 100 µM | A549 58.6 µM | ACHN 45 µM | CAKI-1 36.6 µM | HT-29 > 100 µM | MDA-N > 100 µM | NCI-H226 20.8 µM | NCI-H23 20.9 µM | NCI/ADR-RES 25.8 µM | OVCAR-5 > 100 µM | OVCAR-8 21.7 µM | PC-3 77.6 µM | RPMI-8226 > 100 µM | SK-MEL-2 26.1 µM | SK-MEL-5 80.9 µM | SK-OV-3 17.1 µM | SNB-19 26.5 µM | UACC-257 79.8 µM | UACC-62 31 µM
> 100 µM: HCT-15

CCCC(=O)OC[n+]1cccc(-c2c(COC(=O)NC(C)C)c(COC(=O)NC(C)C)c3n2CCC3)c1
> 93.3 µM: HCT-15
inactive: A498 28.5 µM | A549 89.5 µM | ACHN 30.7 µM | CAKI-1 8.51 µM | HT-29 > 68.2 µM | MDA-N > 100 µM | NCI-H226 > 91 µM | NCI-H23 34.8 µM | NCI/ADR-RES 61.8 µM | OVCAR-5 97.7 µM | OVCAR-8 55.7 µM | PC-3 > 86.7 µM | RPMI-8226 32.3 µM | SK-MEL-2 > 82.6 µM | SK-MEL-5 69.7 µM | SK-OV-3 > 100 µM | SNB-19 > 100 µM | UACC-257 > 100 µM | UACC-62 20.1 µM

O=C1NC(=O)C(C(c2ccc([N+](=O)[O-])cc2)C2C(=O)NC(=O)NC2=O)C(=O)N1
inactive: A498 > 100 µM | A549 > 100 µM | ACHN > 100 µM | CAKI-1 > 100 µM | HT-29 > 100 µM | MDA-N > 100 µM | NCI-H226 > 100 µM | NCI-H23 > 100 µM | NCI/ADR-RES > 100 µM | OVCAR-5 > 100 µM | OVCAR-8 > 100 µM | PC-3 > 100 µM | RPMI-8226 > 100 µM | SK-MEL-2 > 100 µM | SK-MEL-5 > 100 µM | SNB-19 > 100 µM | UACC-257 > 100 µM | UACC-62 > 100 µM
> 100 µM: HCT-15

O=C1c2cc3c(cc2NC(c2ccccc2F)C1O)OCO3 (stereo not drawn)
5.45 µM: HCT-15
inactive: A498 13.3 µM | A549 11.7 µM | ACHN 31.9 µM | CAKI-1 25.6 µM | HT-29 17.6 µM | MDA-N 2.36 µM | NCI-H226 20.9 µM | NCI-H23 22.6 µM | NCI/ADR-RES 10.5 µM | OVCAR-5 22.1 µM | OVCAR-8 28.2 µM | PC-3 10.6 µM | RPMI-8226 30.5 µM | SK-MEL-2 24.3 µM | SK-MEL-5 4.86 µM | SK-OV-3 17.7 µM | SNB-19 21.3 µM | UACC-257 22.9 µM | UACC-62 10.9 µM

CCSC1=N/C(=C\c2ccco2)C(NN)=N1
inactive: A498 > 50 µM | A549 > 50 µM | ACHN > 50 µM | CAKI-1 > 50 µM | HT-29 > 50 µM | MDA-N > 50 µM | NCI-H226 > 50 µM | NCI-H23 > 50 µM | NCI/ADR-RES > 50 µM | OVCAR-5 > 50 µM | OVCAR-8 > 50 µM | PC-3 > 50 µM | RPMI-8226 > 50 µM | SK-MEL-2 > 50 µM | SK-MEL-5 > 50 µM | SK-OV-3 > 50 µM | SNB-19 > 50 µM | UACC-257 > 50 µM | UACC-62 > 50 µM
> 50 µM: HCT-15

Cc1cc2c(cc1C)[n+]([O-])c(NCCCN(C)C)c(C#N)[n+]2[O-]
inactive: A498 > 100 µM | A549 > 100 µM | ACHN > 100 µM | CAKI-1 72.1 µM | HT-29 61.5 µM | MDA-N > 100 µM | NCI-H226 67 µM | NCI-H23 80.9 µM | NCI/ADR-RES 85.1 µM | OVCAR-5 > 100 µM | OVCAR-8 > 100 µM | PC-3 > 100 µM | RPMI-8226 16.1 µM | SK-MEL-2 > 100 µM | SK-OV-3 81.5 µM | SNB-19 > 100 µM | UACC-257 > 100 µM | UACC-62 76.4 µM
75.2 µM: HCT-15

NC(Cc1ccc(S(=O)(=O)O)cc1)C(=O)NC(Cc1ccc(S(=O)(=O)O)cc1)C(=O)NC(Cc1ccc(S(=O)(=O)O)cc1)C(=O)O (stereo not drawn)
> 100 µM: HCT-15
inactive: A498 > 100 µM | A549 > 100 µM | ACHN > 100 µM | CAKI-1 > 100 µM | HT-29 > 100 µM | MDA-N > 100 µM | NCI-H226 > 100 µM | NCI-H23 > 100 µM | NCI/ADR-RES > 100 µM | OVCAR-5 > 100 µM | OVCAR-8 > 100 µM | PC-3 > 100 µM | RPMI-8226 > 100 µM | SK-MEL-2 > 100 µM | SK-MEL-5 > 100 µM | UACC-257 > 100 µM | UACC-62 > 100 µM

CCN(CC)CCNC(=O)c1ccc(I)cc1
inactive: A498 44.3 µM | A549 > 100 µM | ACHN > 100 µM | CAKI-1 60.4 µM | HT-29 33.3 µM | MDA-N > 100 µM | NCI-H226 > 100 µM | NCI-H23 > 100 µM | NCI/ADR-RES > 100 µM | OVCAR-5 > 100 µM | OVCAR-8 > 100 µM | PC-3 > 100 µM | RPMI-8226 > 100 µM | SK-MEL-2 > 100 µM | SK-MEL-5 28.4 µM | SK-OV-3 > 100 µM | SNB-19 > 100 µM | UACC-257 > 100 µM
> 100 µM: HCT-15

C=C(C)[C@@H]1CCC2=C(CC[C@]3(C)[C@@H]([C@@H](CCC=C(C)C)C(=O)O)[C@H](O)C[C@@]23C)[C@@]1(C)CCC(=O)O [PORICOIC ACID G]
38.6 µM: HCT-15
inactive: A498 > 100 µM | A549 42.1 µM | ACHN 75.2 µM | CAKI-1 83.6 µM | HT-29 47.4 µM | MDA-N 86.3 µM | NCI-H226 57.3 µM | NCI-H23 87.3 µM | NCI/ADR-RES > 100 µM | OVCAR-5 45.4 µM | OVCAR-8 > 100 µM | PC-3 45.6 µM | RPMI-8226 88.7 µM | SK-MEL-2 70.3 µM | SK-MEL-5 92.7 µM | SK-OV-3 > 100 µM | SNB-19 46 µM | UACC-257 > 100 µM
